“Also recorded” adds a separate entry of the source.
How the values were obtained:
THLE-5B cells [1] = experiment: Anchorage-independent transformation (over-agar) assay in THLE-5B cells; assay type: cell-based, human; conditions: 10 ng/ml EGF, inhibitor 0.01 μM to 1.0 μM, colonies counted after 14 days
Procedure: Cells and Culture Conditions. The normal human liver epithelial cell line, THLE-5B, was kindly provided by Curtis Harris (NCI, National Institutes of Health, Bethesda, Md.). THLE-5B cells were propagated in DMEM/F-12 (1:1; Invitrogen, Carlsbad, Calif.) with 10% fetal bovine serum (MediaTech CellGro, Herndon, Va.), that was supplemented with 100 units/ml penicillin, […] streptomycin (both from Invitrogen), 10 μg/ml insulin, 10 μg/ml transferrin and 10 ng/ml selenium (ITS; Lonza, Walkersville, Md.). Primary human hepatocytes were isolated as described before and cultured in HMM media (Lonza). Cells were maintained at 37° C. in a humidified incubator with 5% CO2 in air.
Chemicals. Stock solutions of AG1478 (Invitrogen), erlotinib (Tarceva™; Genentech, South San Francisco, Calif.) and gefitinib (Iressa™; AstraZeneca, Wilmington, Del.) were prepared in DMSO and stored at −20° C. EGF (Sigma, St. Louis, Mo.) stock solution was prepared in 10 mM acetic acid and diluted in PBS.
Anchorage-Independent Transformation Assay. Because cells suspended in soft agar cannot be easily recovered, the inventors used the previously described over-agar assay which allows for the analysis of molecular events associated with tumor promoter-induced cell transformation under anchorage-independent conditions. Briefly, 1×10^4 THLE-5B cells or isolated human hepatocytes were plated onto 0.5% BME agar containing the indicated concentrations of EGF and inhibitors. The plates were cultured for 14 days, after which colonies of transformed cells were counted using a microscope. The results represent one experiment and are presented as the mean±standard deviation of colony counts made by three separate investigators. The experiments were repeated twice to ensure qualitatively similar results.

THLE-5B cells [2] = experiment: Cell growth (MTT) assay in THLE-5B cells; assay type: cell-based, human; conditions: inhibitor 0.01-1 μM; 72 h
Procedure: Cell Growth Assay. Briefly, THLE-5B cells were plated in triplicate at a density of 4×10^4 cells/ml in a 24-well plate. After 24 h, cells were washed once with PBS and medium containing inhibitors at the indicated concentrations or vehicle control was added. After 72 h, the effects of each inhibitor on growth of the cells was measured by colorimetric 3-(4,5-dimethylthiazol-2-yl)-2,5-diphenyltetrazolium bromide (MTT; Sigma) assay. The absorbance at 562 nm was measured using a spectrophotometric plate reader (Emax; Molecular Devices) and the experiment was repeated twice to ensure qualitatively similar results for each inhibitor.

HCC nodules = conditions: rat, DEN-induced cirrhosis; treatment during weeks 12-18; cited from earlier work

C#Cc1cccc(Nc2ncnc3cc(OCCOC)c(OCCOC)cc23)c1 [Erlotinib]
EGF mediated anchorage-independent transformation of THLE-5B cells (THLE-5B cells [1]): prevents EGF mediated anchorage-independent transformation; also recorded: inhibited
cytotoxicity to THLE-5B cells as determined by MTT (THLE-5B cells [2]): not cytotoxic

COc1cc2ncnc(Nc3ccc(F)c(Cl)c3)c2cc1OCCCN1CCOCC1 [Gefitinib]
formation of HCC nodules (HCC nodules): significantly reduced the formation of HCC nodules; also recorded: significantly reduced the formation of hepatocellular carcinoma nodules
EGF mediated anchorage-independent transformation of THLE-5B cells (THLE-5B cells [1]): inhibited
EGF mediated anchorage-independent transformation of THLE-5B cells (THLE-5B cells [1]; listed as Gefitnib): prevents EGF mediated anchorage-independent transformation
cytotoxicity to THLE-5B cells as determined by MTT (THLE-5B cells [2]): not cytotoxic

COc1cc2ncnc(Nc3cccc(Cl)c3)c2cc1OC [AG1478, 4-(3-Chloroanillino)-6,7-dimethoxyquinazoline]
EGF mediated anchorage-independent transformation of THLE-5B cells (THLE-5B cells [1]): prevents EGF mediated anchorage-independent transformation; also recorded: inhibited
cytotoxicity to THLE-5B cells as determined by MTT (THLE-5B cells [2]): not cytotoxic
